The results in this text go back to ChEMBL document CHEMBL1145039, “Synthesis and biological evaluation of thiol-based inhibitors of glutamate carboxypeptidase II: discovery of an orally active GCP II inhibitor” (J Med Chem, 2003).

Structures are written as SMILES.

The target in series [1] is T1, Glutamate carboxypeptidase 2 (Homo sapiens, UniProt Q04609).
Description: Inhibition of N-acetyl-L-aspartyl-[3H]L-glutamate binding to glutamate carboxypeptidase II (GCP II)
The nature of series [2]: Plasma concentration was determined after orally administered dose of 10 mgkg in rats. On the set-up: dose 10 mgkg, route oral. Particulars: rat, po, 10 mg/kg. The format is ADME, organism-based.
Series [3] is described as follows: Half life after intravenously administered dose of 10 mgkg in rats. To be noted: rat, in vivo, iv, 10 mg/kg. The series is classed as ADME, organism-based. On the set-up: dose 10 mgkg, route intravenous.
Series [4] can be described thus: Pharmacokinetic constant Area under curve(AUC) was determined after orally administered dose of 10 mgkg in rats. The arrangement: dose 10 mgkg, route oral. The series is classed as ADME, organism-based. Particulars: rat, in vivo, po, 10 mg/kg.
Series [5] in a line: Pharmacokinetic constant(Tmax) after orally administered dose of 10 mgkg in rats. The format is ADME, organism-based. On the set-up: dose 10 mgkg, route oral. Particulars: rat, in vivo, po, 10 mg/kg.
A short description of series [6]: Pharmacokinetic constant Area under curve(AUC) was determined after intravenously administered dose of 10 mgkg in rats. The format is ADME, organism-based. The arrangement: dose 10 mgkg, route intravenous. To be noted: rat, in vivo, iv, 10 mg/kg.
Series [7] is described as follows: Half life after orally administered dose of 10 mgkg in rats. The series is classed as ADME, organism-based. The arrangement: dose 10 mgkg, route oral. Particulars: rat, in vivo, po, 10 mg/kg.
Series [8] deals with T1, Glutamate carboxypeptidase 2. The source holds these as a separate data set.
Description: In vitro inhibitory activity against glutamate carboxypeptidase II (GCP II) using N-acetyl-L-aspartyl-[3H]L-glutamate as a substrate
A short description of series [9]: Bioavailability after orally administered dose of 10 mgkg in rats. The format is ADME, organism-based. Particulars: rat, in vivo, po.
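Throughout, for IC50: inhibition of binding of tritium-labelled N-acetyl-L-aspartyl-L-glutamate to the enzyme.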

T1 sequence (Q04609 whole entry): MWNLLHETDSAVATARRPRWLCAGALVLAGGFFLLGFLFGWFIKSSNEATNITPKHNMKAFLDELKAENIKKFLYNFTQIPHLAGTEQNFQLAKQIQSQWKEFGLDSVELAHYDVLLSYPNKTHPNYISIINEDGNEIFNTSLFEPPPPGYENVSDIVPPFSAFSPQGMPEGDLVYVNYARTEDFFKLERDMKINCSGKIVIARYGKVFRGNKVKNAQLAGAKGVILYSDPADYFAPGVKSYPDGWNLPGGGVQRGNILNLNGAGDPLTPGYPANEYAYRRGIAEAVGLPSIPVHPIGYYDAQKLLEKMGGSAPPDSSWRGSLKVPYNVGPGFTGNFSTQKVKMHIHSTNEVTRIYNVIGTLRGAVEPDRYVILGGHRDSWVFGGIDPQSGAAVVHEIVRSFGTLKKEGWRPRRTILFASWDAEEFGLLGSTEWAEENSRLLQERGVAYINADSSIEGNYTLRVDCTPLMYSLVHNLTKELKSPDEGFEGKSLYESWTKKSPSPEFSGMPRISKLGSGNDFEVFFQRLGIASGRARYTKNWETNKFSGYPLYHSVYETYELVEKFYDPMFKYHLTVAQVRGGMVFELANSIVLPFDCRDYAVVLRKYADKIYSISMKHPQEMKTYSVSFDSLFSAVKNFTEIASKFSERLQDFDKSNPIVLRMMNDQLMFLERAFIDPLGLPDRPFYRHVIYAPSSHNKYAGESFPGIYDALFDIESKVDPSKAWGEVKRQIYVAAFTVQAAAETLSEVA

With `CSCCCC(CCC(=O)O)C(=O)O` (stereo not given), the IC50 – broadly, the concentration that inhibits the measured activity by half – in series [1] turned out to be 6500 nM.

Take `O=C(O)CCC(CCCSSCCCC(CCC(=O)O)C(=O)O)C(=O)O` (stereo not given): the Cmax (as a rule, the maximum level reached in the sampled fluid or tissue) in [2] was 44 ng/mL. Also, the half-life (commonly the time in which the quantity being followed falls by half) is 22.2 min in [3] and 116 min in series [7]. Further, the AUC (commonly the area under the concentration-time curve, a measure of exposure) turned out to be 53 ng·h/mL in [4] and 190 ng·h/mL in series [6]. Also, the Tmax – broadly, the time at which the peak concentration occurs – in series [5] was determined as 54 min. For the same compound, in series [1], half-maximal inhibition (IC50) required 3100 nM.

`O=C(O)CCCCS`: the midpoint of inhibition in series [1], the IC50, lay at 1400 nM.

The compound `O=C(O)CCC(CCCCS)C(=O)O` (stereo not given) registered an IC50 in series [1] of 1100 nM. This IC50 and that of the compound before are within 1.5-fold of each other.

Consider `O=C(O)C(CS)Cc1ccccc1` (stereo not given), for which the affinity in series [8], expressed as Ki, was 11 nM. In other words, the double-digit nanomolar range.

In turn, `O=C(O)CCC(C(=O)O)P(=O)(O)O` (stereo not given) registered an IC50 in series [1] of 1400 nM.

Consider `O=C(O)CCC(CCCS)C(=O)O` (stereo not given), for which, in [2], the peak level (Cmax) was 2230 ng/mL. Also, the bioavailability (in general, the share of a dose that reaches the circulation, judged against a reference dose that is usually intravenous) in series [9] worked out at 71%. The half-life in series [3] is 63 min; in series [7], 70.8 min. Further, the AUC came out at 1820 ng·h/mL in series [4] and 2550 ng·h/mL in [6]. Further, the Tmax in series [5] was found to be 9.6 min.

The compound `O=C(O)CCC(CCCCCS)C(=O)O` (stereo not given) came in with an IC50 in series [1] of 2600 nM.

In turn, `O=C(O)CCC(CS)C(=O)O` (stereo not given) had an IC50 in [1] of 6000 nM.

On to `O=C(O)CCC(CCS)C(=O)O` (stereo not given), for which, in series [1], 580 nM corresponded to half-maximal inhibition (IC50).

On to `O=C(O)CCC(CCP(=O)(O)O)C(=O)O` (stereo not given), for which the IC50 in [1] amounted to 1200 nM.

In series [1], `O=C(O)CCC(S)C(=O)O` (stereo not given) displayed an IC50 of 2600 nM.

Compound `O=C(O)CCC(CCCSC(c1ccccc1)(c1ccccc1)c1ccccc1)C(=O)O` (stereo not given) came in with an IC50 in [1] of more than 10000 nM.
